# Measured values from patent publication US12516070B2, “Fused ring derivatives and use thereof in pharmacy” (priority 2020, dated 2026).
# Tests used:
# [1] = system: A/PR/8/34 I38T Mutation (H1N1); assay type: cell-based, influenza virus
# [2] = system: A/WSN/33 I38T Mutation (H1N1); assay type: cell-based, influenza virus
smiles,measurement,setting,value
CN1C(=O)c2c(O)c(=O)ccn2N2[C@H](c3ccccc3Br)c3cc(F)c(F)cc3OCC[C@@H]12 [Compound 18A],EC50,[1],117 nM
same,EC50,[2],214 nM
